# Experimental data published in ChEMBL document CHEMBL3822369, “Structure-Based Design of an in Vivo Active Selective BRD9 Inhibitor” (J Med Chem, 2016).
# Assays:
# Mus musculus [1] = assay: Clearance in BomTac:NMRI-Foxn1nu mouse plasma at 5 mg/kg, iv administered as bolus; assay type: ADME, organism-based; settings: in vivo
# [2] = Cmax in BomTac:NMRI-Foxn1nu mouse at 20 mg/kg, po administered as suspension; assay type: ADME, organism-based; set-up: dose 20 mg/kg, route oral; settings: in vivo
# [3] = AUC (0 to last) in BomTac:NMRI-Foxn1nu mouse at 20 mg/kg, po administered as suspension; assay type: ADME, organism-based; set-up: dose 20 mg/kg, time 0 - last, route oral; settings: in vivo
# [4] = Cmax in BomTac:NMRI-Foxn1nu mouse at 180 mg/kg, po administered as suspension; assay type: ADME, organism-based; set-up: dose 180 mg/kg, route oral; settings: in vivo
# [5] = Volume of distribution at steady state in BomTac:NMRI-Foxn1nu mouse plasma at 5 mg/kg, iv administered as bolus; assay type: ADME, organism-based; settings: read-out: Vdss
# Mus musculus [6] = assay: (§1) Oral bioavailability in BomTac:NMRI-Foxn1nu mouse at 180 mg/kg, administered as suspension; assay type: ADME, organism-based; settings: in vivo
# [7] = Oral bioavailability in BomTac:NMRI-Foxn1nu mouse at 20 mg/kg, administered as suspension; assay type: ADME, organism-based; settings: in vivo
# Mus musculus [8] = assay: AUC (0 to last) in plasma of CIEA-NOG mouse xenografted with human EOL-1 cells at 180 mg/kg, po administered qd for day 5 to 17 and day 20 to 22 post tumor transplantation; assay type: ADME, organism-based, EOL1; set-up: dose 180 mg/kg, time 0 - last, route oral; settings: in vivo
# [9] = Apparent permeability in human Caco2 cells across apical side to basolateral side at 10 uM by LC-MS/MS analysis; assay type: ADME, cell-based; settings: Caco-2
# [10] = AUC (0 to last) in BomTac:NMRI-Foxn1nu mouse at 180 mg/kg, po administered as suspension; assay type: ADME, organism-based; set-up: dose 180 mg/kg, time 0 - last, route oral; settings: in vivo
# [11] = Aqueous solubility of the compound at pH 6.8 by UPLC/UV method; assay type: physicochemical; settings: buffer
# [12] = as §1; assay type: ADME, organism-based; settings: BomTac:NMRI-Foxn1nu, in vivo
CL (Mus musculus [1]) [%],Cmax [2] [µM],AUC(0-t) [3] [µM·h],Cmax [4] [µM],Vd [5] [L/kg],F (Mus musculus [6]) [%],bioavailability [7] [%],AUClast (Mus musculus [8]) [µM·h],Papp A→B at 10 µM [9] [×10⁻⁶ cm/s],AUC(0-t) [10] [µM·h],solubility [11] [µg/mL],bioavailability [12] [%],SMILES
65,5.4,15,35,2.1,151,88,268,11,226,> 90,–,COc1cc(-c2cn(C)c(=O)c3cnccc23)c(OC)cc1CN(C)C
57,3,7.5,25,1.6,–,39,–,1.4,108,> 91,64,COc1cc(-c2cn(C)c(=O)c3cnccc23)cc(OC)c1CN(C)C
